Tests used:
[1] = LPS in vivo model: sickness behaviour (body weight, locomotion, novel object recognition); design: species or system mouse; conditions: 20 mg·kg^-1 i.p.
Experimental: The LPS in vivo model was induced, sickness behaviour evaluated (locomotion test and novel object recognition test) and cytokines measured by qPCR as described by [Fernández-Mendivil, Cristina et al. "Protective role of microglial HO-1 blockade in aging: Implication of iron metabolism." Redox biology vol. 38 (2021): 101789. doi:10.1016/j.redox.2020.101789]. The panel of mouse cytokines, chemokines, and growth factors were measured by Luminex xMAP technology for multiplexed quantification at Evetechnologies (https://www.evetechnologies.com/)
Example 2.3.1. Treatment with Compound 1 reduces LPS-induced cytokine expression and release in mouse brain. Mice were treated i.p. with a daily dose of 20 mg·kg^-1 of Compound 1 for 4 consecutive days. On the last day, LPS (0.5 mg·kg^-1) was injected i.p. one h after the compound. Thereafter, behavioural, and biochemical outcomes were analysed at different time points.
Example 2.3.3. Treatment with Compound 1 reduces LPS-induced sickness behaviour. Peripheral administration of LPS produces neuroinflammation and induces a "sickness behaviour" in mice that is characterized by body weight loss, reduction of the locomotor activity and a cognitive decline.

[2] = Cell viability/toxicity by the MTT method; assay type: cell-based; conditions: human, effect of the compound per se on AREc332 cells
Text: Based on the results obtained (Table 2), Compound 1 was selected for further in vitro and in vivo studies as it was endowed with the best anti-neuroinflammatory activity. Table 2: Comparative in vitro results. Cell viability/toxicity: effect of the compound per se on cell viability of […] cells measured with the MTT method. Anti-neuroinflammatory effect: % Reduction of nitrites in primary rat glial cultures. PAMPA-BBB: In vitro blood-brain barrier permeation assay, permeation rate Pe (10-6 cm.s-1). NRF2, CD (µM): Concentration of compound that doubles de activation of NRF2. ORAC: Oxygen radical absorbance capacity. LOX-5: lipoxygenase-5.

[3] = In vitro blood-brain barrier permeation assay (PAMPA-BBB); assay type: in vitro ADME
Text: The in vitro blood-brain barrier permeation assay (PAMPA-BBB) was used for predicting the brain penetration of compounds, following a described method [Herrera-Arozamena, Clara et al. "Resveratrol-Based MTDLs to Stimulate Defensive and Regenerative Pathways and Block Early Events in Neurodegenerative Cascades." Journal of medicinal chemistry vol. 65,6 (2022): 4727-4751. doi:10.1021/acs.jmedchem.1c01883]. The results are given as the mean ± SD. In each experiment, 11 quality control standards of known BBB permeability were included to validate the analysis set.

[4] = In vivo hTauP301L model: spatial memory tests (T-maze, Object Location test); design: species or system mouse; conditions: 35 days; for OLT discrimination index / T-maze percentage of success: adult mice
Experimental: (§1) In vivo hTau301L model was induced by stereotaxic injection of AAV-hTauP301L (AAV-hTau) particles as described in [Luengo, Enrique et al. "Implication of type 4 NADPH oxidase (NOX4) in tauopathy." Redox biology vol. 49 (2022): 102210. doi:10.1016/j.redox.2021.102210 ]. Control animals were injected with AAV-GFP. Evaluation of hyperphosphorylated tau in sarkosyl soluble and insoluble fractions; microgliosis; AT8 and AT180 by immunofluorescence; and cognitive test were performed as described previously [Luengo, Enrique et al. "Implication of type 4 NADPH oxidase (NOX4) in tauopathy." Redox biology vol. 49 (2022): 102210. doi:10.1016/j.redox.2021.102210 ].
Oral administration of Compound 1 at different dosages (20 mg·kg^-1 and 50 mg·kg^-1) was administered embedded in gelatine. The compound was given in a mixture of 10 % gelatine from porcine skin and 10 % sucralose in water, heated in a microwave oven. Before Compound 1 addition, gelatine mixture was left at RT. Afterwards, the compound was added, evenly mixed and plated 1 mL·well^-1 in a P24 plate. Before AAV injection, mice were trained to eat the gelatines by giving them one gelatine (without compound) per day for 4 consecutive days. After AAV injection, mice were treated once a day with control or Compound 1 gelatines for 35 consecutive days. This approach was followed in adult (3-4 months old) and aged (16-18 months old) mice injected with AAV-GFP or AAV-hTauP301L.
Example 2.5. Compound 1 ameliorates hTauP301L induced FTD and cognitive decline in adult (3-4 months old) mice. FTD was generated in adult male and female C57BL/6J mice (3-4 months old) by bihippocampal injection of AAV-hTau particles containing the P301L mutation. Mice were treated orally once a day with a single dose of 20 or 50 mg/kg of Compound 1 formulated in gelatines the day after stereotaxic delivery of AAVs (GFP or TauP301L, to controls and FTD, respectively). After 35 days treatment, hyperphosphorylated tau levels were evaluated by immunofluorescence and by WB in soluble and insoluble in sarkosyl fractions. Also, behavioural tests were conducted to study the cognition status of the mice.
Spatial memory was measured using the T-maze (Figure 9A) and the Object localization tests (OLT; Figure 9B).
Example 2.6. Compound 1 ameliorates hTauP301L induced FTD and cognitive decline in aged (16-18 months old) mouse. To include the aging effect in the FTD model, the previous experiments were replicated in male and female 16-18 months old C57/BL6J mice.

hyperphosphorylated tau = assay: In vivo hTauP301L model: western blot of sarkosyl soluble and insoluble hyperphosphorylated tau; design: species or system mouse; conditions: adult mice; 50 mg/kg/day oral, 35 days; sarkosyl insoluble fraction
Experimental: as §1
Oral administration of Compound 1 at different dosages (20 mg·kg^-1 and 50 mg·kg^-1) was administered embedded in gelatine. The compound was given in a mixture of 10 % gelatine from porcine skin and 10 % sucralose in water, heated in a microwave oven. Before Compound 1 addition, gelatine mixture was left at RT. Afterwards, the compound was added, evenly mixed and plated 1 mL·well^-1 in a P24 plate. […]
Example 2.5. […] After 35 days treatment, hyperphosphorylated tau levels were evaluated by immunofluorescence and by WB in soluble and insoluble in sarkosyl fractions. […]
After 35 days of treatment, monomeric and oligomeric forms of tau, soluble and insoluble in sarkosyl, were analysed by western blot. […]

[5] = aged (16-18 months old) mice, 50 mg/kg oral

With `COc1ccc2c(c1)CC(c1c[nH]c3ccc(OC)cc13)N2` (centres unmarked) [Compound 1, 5-Methoxy-3-(5-methoxyindolin-2-yl)-1H-indole] the “Locomotion, line crossings of an imaginary grid” value ([1]; 4 and 8 h after LPS exposure, values similar to saline animals) was “improved”, the body weight loss ([1]; compared to LPS-vehicle treated animals) was “less reduction of the body weight loss” and the “cognitive decline (NOR test, discrimination index)” value ([1]; compared to vehicle-LPS treated animals) was “did not show cognitive decline”. The CC50 [2] was greater than 30 µM, the “PAMPA-BBB predicted brain penetration” value [3] was “cns+” and the Papp ([3]; PAMPA, permeation rate, mean ± SD, read-out: PAMPA-BBB Pe) was 12.9 ± 0.9 ×10⁻⁶ cm/s. For the same compound, the OLT discrimination index ([4]; 20 mg/kg or 50 mg/kg oral) was “dose-dependent improvement”, the “T-maze percentage of success” value ([4]; 20 mg/kg or 50 mg/kg oral) was “dose-dependent improvement” and the OLT discrimination index ([4]; 50 mg/kg oral) was “total recovery”. For the same compound, the “T-maze percentage of success” value ([4]; 50 mg/kg oral) was “total recovery”, the “spatial memory loss, OLT” value [4, 5] was “prevented” and the “spatial memory loss, T-maze” value [4, 5] was “prevented”. The “insoluble monomers of AT180” value (hyperphosphorylated tau) was “significant reduction” and the “insoluble oligomers of AT180” value (hyperphosphorylated tau) was “tendency to reduce”.

— EP4467137A1, “TREATMENT OF FRONTOTEMPORAL DEMENTIA OR FRONTOTEMPORAL LOBAR DEMENTIA” (Universidad Autónoma de Madrid, priority 2023, dated 2024)
